For series [1], the system named is HI-responsive tumors. Put plainly: MPA breast cancer model, HI-responsive tumors in vivo. Also on record: species or system mouse.
For series [2], the target named is T1, PR (Homo sapiens, UniProt P06401).
T1 sequence (P06401 1-933): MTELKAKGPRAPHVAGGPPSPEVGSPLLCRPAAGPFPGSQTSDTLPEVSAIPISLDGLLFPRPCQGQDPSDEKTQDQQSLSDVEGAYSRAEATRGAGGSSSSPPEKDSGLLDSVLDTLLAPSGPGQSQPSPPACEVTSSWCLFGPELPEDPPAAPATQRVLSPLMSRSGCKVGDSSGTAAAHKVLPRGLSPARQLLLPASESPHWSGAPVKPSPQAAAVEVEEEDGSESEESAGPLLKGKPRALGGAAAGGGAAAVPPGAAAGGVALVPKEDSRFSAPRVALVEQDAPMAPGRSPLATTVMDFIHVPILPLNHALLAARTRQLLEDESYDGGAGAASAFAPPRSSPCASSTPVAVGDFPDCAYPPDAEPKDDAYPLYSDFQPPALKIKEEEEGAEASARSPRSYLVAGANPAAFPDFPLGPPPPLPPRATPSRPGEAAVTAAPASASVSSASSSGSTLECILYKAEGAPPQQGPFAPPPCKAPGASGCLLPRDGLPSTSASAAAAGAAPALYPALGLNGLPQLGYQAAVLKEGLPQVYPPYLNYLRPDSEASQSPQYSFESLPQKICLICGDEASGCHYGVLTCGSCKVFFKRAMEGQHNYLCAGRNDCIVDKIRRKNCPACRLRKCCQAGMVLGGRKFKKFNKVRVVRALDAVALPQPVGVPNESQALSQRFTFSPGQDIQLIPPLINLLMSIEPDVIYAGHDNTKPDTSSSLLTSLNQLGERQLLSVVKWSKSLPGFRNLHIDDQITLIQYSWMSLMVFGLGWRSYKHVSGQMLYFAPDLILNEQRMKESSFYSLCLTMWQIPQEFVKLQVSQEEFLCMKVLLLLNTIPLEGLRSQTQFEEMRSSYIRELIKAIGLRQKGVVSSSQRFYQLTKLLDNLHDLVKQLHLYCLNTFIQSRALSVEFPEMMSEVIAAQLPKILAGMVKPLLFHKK
Conditions: cited from earlier work.

The target in series [3] is GR (Homo sapiens, UniProt P04150). As to conditions: cited from earlier work.
Series [4] deals with T2, glucocorticoid receptor (Homo sapiens, UniProt P04150).
T2 sequence (P04150 1-777): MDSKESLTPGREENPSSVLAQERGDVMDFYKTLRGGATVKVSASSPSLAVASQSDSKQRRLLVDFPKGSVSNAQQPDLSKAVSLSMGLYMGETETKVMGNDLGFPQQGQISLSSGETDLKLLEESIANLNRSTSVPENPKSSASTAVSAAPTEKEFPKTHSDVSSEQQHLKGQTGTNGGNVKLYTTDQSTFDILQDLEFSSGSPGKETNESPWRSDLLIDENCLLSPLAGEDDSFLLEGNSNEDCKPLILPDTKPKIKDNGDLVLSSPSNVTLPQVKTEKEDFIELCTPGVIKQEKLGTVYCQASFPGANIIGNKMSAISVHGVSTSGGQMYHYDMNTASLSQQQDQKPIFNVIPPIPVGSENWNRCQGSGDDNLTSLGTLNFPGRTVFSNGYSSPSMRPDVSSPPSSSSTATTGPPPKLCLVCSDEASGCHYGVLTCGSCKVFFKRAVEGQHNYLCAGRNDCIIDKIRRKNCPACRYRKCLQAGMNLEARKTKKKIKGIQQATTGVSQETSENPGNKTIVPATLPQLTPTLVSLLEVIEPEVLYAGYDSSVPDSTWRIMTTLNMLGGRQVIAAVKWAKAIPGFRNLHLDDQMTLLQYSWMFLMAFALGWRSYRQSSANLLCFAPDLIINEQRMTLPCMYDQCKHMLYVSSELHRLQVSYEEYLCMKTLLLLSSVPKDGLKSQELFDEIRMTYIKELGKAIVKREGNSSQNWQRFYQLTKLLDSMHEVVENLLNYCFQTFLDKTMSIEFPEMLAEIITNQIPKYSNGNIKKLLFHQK
As to conditions: cited from earlier work.

The test system of series [5] is T61 human tumors. As to conditions: in vivo; cited from earlier work.
Series [6] relates to HI-responsive tumors. As to conditions: cited from earlier work; for therapeutic effects: murine mammary carcinomas with increased PR-A/PR-B.
Series [7] has as its system primary cultures of responsive tumors. As to conditions: 1-100 nM; cited from earlier work.
Series [8] concerns DMBA-induced mammary tumors. As to conditions: cited from earlier work.
Series [9] deals with MXT mouse model of breast cancer. Conditions: cited from earlier work.
Series [10] deals with T47D cells. As to conditions: cited from earlier work.
The subject of series [11] is MCF-7 xenografts. As to conditions: MIF 50 mg/kg/day, ONA 30 mg/kg/day, 17 days; cited from earlier work.
Series [12] concerns breast cancer. Conditions: cited from earlier work.
Series [13] deals with T1, PR. Conditions: cited from earlier work. The source holds these as a separate data set.
Series [14] relates to epithelial cells from breast cancer samples. The series can be described thus: Primary cultures from breast cancer samples: cell number or Ki67. The class given is cell-based, human. Conditions: 10^-8 M, one week; 3 out of 8 cases; p<0.05. The source says:
The samples were obtained at surgery from patients diagnosed with breast cancer at the […]. de Martinez Hospital from General Pacheco and at the […] Hospital of Buenos Aires after signing the informed consent (n=70; median age 55 year). Protocols were approved by the Institutional Ethical Review Board. Whenever possible, one piece of the sample was kept in dry ice immediately after surgery and another piece was kept in culture medium and transported to IBYME. Tumor samples were processed by mechanical and enzymatic degradation and epithelial cells were purified by differential sedimentation techniques (7). The epithelial cells were cultured with DMEM/F12 medium plus 10% fetal calf serum (FCS). Once the cultures were overcrowded, they were subcultured and equal numbers of cells were seeded in 24 well plates. […] OH-Tamoxifen was also used as a control. After one week of treatment, the cells were trypsinized and the total number of cells in each well was counted or alternatively, they were fixed to evaluate the Ki67 (proliferation marker) expression by IHC. In several cases in which there were carcinoma associated fibroblasts intermingled with the epithelial cells, a double staining of Ki67 and cytokeratin (CK) was performed to consider the proliferating cells among the total number of epithelial cells (CK+). An inhibitory index was calculated for each tumor.

Series [15] has as its system MCF-7 cells. Conditions: 10 nM; 10% steroid-deficient human serum; cited from earlier work.
In series [16] the test system is C4-HI cells. The series can be described thus: (3H)-thymidine uptake, primary cultures of purified epithelial cells. The class given is cell-based, mouse. As to conditions: 48 h, with MPA; P<0.001. How it is done: (§1) Epithelial cells and carcinoma-associated fibroblasts were separated by differential sedimentation and plated with 10% FCS. Carcinoma-associated fibroblasts were allowed to attach for 0.5 h and the epithelial cells for 24-48 h. The medium was replaced by fresh medium with 10% FCS; thereafter, it was changed every 2-3 days.
(§2) (3H)-thymidine-uptake was used as an indirect method to evaluate cell proliferation. In brief, cells were seeded into 96-well microplates. After attachment (24 h), the cells were incubated for 24 h with 1% steroid-stripped FCS and then for 48 h with the experimental solutions to be tested in 1% chFCS. Fifty percent of the medium was replaced with fresh medium every 24 h. The cells were incubated with 0.4 μCi of 3H-thymidine (specific activity: 20 Ci/mmol) for 24 h, trypsinized, and harvested in a cell harvester. In experiments in which 5azadC was used, the experiments were carried out using proliferating cells (presence of 10% FCS) to guarantee the effect of the demethylating agent. Three different experiments were made using octuplicates, and the means and standard deviations of one representative experiment of the other three are shown. The results are expressed as the proliferation index (cpm […] experimental group/cpm control; mean±SEM).

The subject of series [17] is C4-HIR cells. The series is described as above. As to conditions: 48 h, with MPA; P<0.001. The class given is cell-based, mouse. How it is done:
as §1, §2

Read-outs that look alike come from different tables or passages of the source.

As for `C/C=C\[C@]1(O)CC[C@H]2[C@@H]3CCC4=CC(=O)CCC4=C3[C@@H](c3ccc(N(C)C)cc3)C[C@@]21C` [Aglepristone], in series [1] (3 mg/week, unpublished data), the tumor regression entry is given as “regress”. For the same compound, the PR affinity entry in [2] is recorded as “high affinity”. In series [3], the GR affinity entry was “lower affinity”.

As to `CC(=O)O[C@]1(C(C)=O)CC[C@H]2[C@@H]3CCC4=CC(=O)CCC4=C3[C@@H](c3ccc(N(C)C)cc3)C[C@@]21C` [CDB-2914], the antiglucocorticoid activity result in series [4] was “less than that of MIF”.

As to `COCC(=O)[C@@]1(OC(C)=O)CC[C@H]2[C@@H]3CCC4=CC(=O)CCC4=C3[C@@H](c3ccc(N(C)C)cc3)C[C@@]21C` [CDB-4124], the antiglucocorticoid activity entry in series [4] is on record as “less than that of MIF”.

Take `C[C@]12CC[C@@H]3c4ccc(O)cc4CC[C@H]3[C@@H]1CC[C@@H]2O` [E2, 17-β-Estradiol]: the tumor regression result in series [1] (0.5-5 mg) is “regress”. Also, in series [5], the tumor growth entry was “induces tumor regression”.

As for `CN(C)c1ccc([C@H]2C[C@]3(C)[C@@H](CC[C@]3(O)CCCO)[C@@H]3CCC4=CC(=O)CCC4=C32)cc1` [ONA, onapristone], the tumor regression result in series [6] (daily doses of 10 mg/kg) is listed as “regress”. The tumor regression result in series [6] (mouse, in vivo) is “induced tumor regression”. In addition, the therapeutic effects result in [6] was “excellent therapeutic effects”. Moreover, in [7], the “MPA-induced or FGF2-induced cell proliferation” value is “inhibited MPA-induced or FGF2-induced cell proliferation”. The antiglucocorticoid activity result in [4] is recorded as “antiglucocorticoid effects at higher concentrations”. Further, the “efficacy compared with MIF” value in series [8] (same doses) is “more efficacious than MIF”. Moreover, the “inhibition of cell proliferation compared with MIF” value in [9] (10 mg/kg/day) is listed as “better than MIF at inhibiting cell proliferation”. The “tumor take and stimulatory effects of E2 and MPA” value in [9] (1 or 10 mg/kg/day from one day post-transplantation) was “inhibited both tumor take and the stimulatory effects of E2 and MPA”. The “effects on T47D cells” value in series [10] (5% FCS) is “inhibitory effects”. Besides, in series [11], the “E2-induced proliferation of xenografts” value was “inhibited”. Besides, in series [5], the tumor growth result was “has no effect”. Further, in series [12] (19 patients), the partial response was 56% and the stable disease is listed as 11%. Further, in [12] (human, in vivo), the reason for discontinuation entry is “hepatotoxicity” and the “reason for stopping the trial” value was “liver function test abnormalities”. Further, the “effect in cells treated with analogs of cyclic AMP” value in series [13] (T47D cells transfected with MMTV-CAT) was “still behaved as an antagonist”.

Regarding `C[C@@H]1C[C@@H]2C(=C3CCC(=O)C=C31)[C@@H](c1ccc(N(C)C)cc1)C[C@@]1(C)[C@H]2CC[C@@]12CCCO2` [Org 31710], the “efficacy compared with MIF” value in [8] (p.o.) was “more effective than MIF”.

Take `C[C@H]1CC2=CC(=O)CCC2=C2[C@@H]1[C@@H]1CC[C@@]3(CCCO3)[C@@]1(C)C[C@@H]2c1ccc(N(C)C)cc1` [Org 31806]: in [8] (p.o.), the “efficacy compared with MIF” value is given as “more effective than MIF”.

In the case of `CCC(=O)[C@@]1(C)CC[C@H]2[C@@H]3CCC4=CC(=O)CCC4=C3CC[C@@]21C` [R5020], the “proliferation of T47D and MCF-7 cells” value in series [10] (MIF at micromolar concentrations) was “stimulate the proliferation”.

Regarding `CC/C(=C(\c1ccccc1)c1ccc(OCCN(C)C)cc1)c1ccccc1` [Tamoxifen, tamoxifen], the “number of cells as compared to the controls” value in series [14] is “significant decrease in the number of cells”. For the same compound, the tumor growth entry in [1] (mouse, in vivo) was “tumor growth was inhibited”; in series [5], “inhibits tumor growth”. Also, in series [8] (rat, in vivo), the “PR (and ER) expression” value is “increased PR expression”. Further, the E2-induced cell proliferation result in [15] is on record as “inhibited E2-induced cell proliferation”; in series [10] (clone 11, ER- and PR-positive), “specifically inhibit E2-induced cell proliferation”.

Take `CC#C[C@]1(O)CC[C@H]2[C@@H]3CCC4=CC(=O)CCC4=C3[C@@H](c3ccc(C(C)=O)cc3)C[C@@]21C` [ZK 112993]: the tumor growth entry in series [5] was “significantly inhibits the growth”.

For `CC(=O)c1ccc([C@H]2C[C@@]3(C)[C@@H](CC[C@@]3(O)C(F)(F)C(F)(F)F)[C@@H]3CCC4=CC(=O)CCC4=C32)cc1` [ZK 230211, lonaprisan], the MPA-induced proliferative effect entry in series [16] and in [17] was “abolished” each time. The tumor regression entry in series [6] (daily doses of 10 mg/kg) is reported as “regress”; in series [6] (mouse, in vivo), “induced tumor regression”. For the same compound, in [6], the therapeutic effects result was “excellent therapeutic effects”. The “MPA-induced or FGF2-induced cell proliferation” value in [7] is given as “inhibited MPA-induced or FGF2-induced cell proliferation”. Moreover, the antiglucocorticoid activity result in [4] is given as “low antiglucocorticoid activity”. Besides, the apoptosis result in series [10] (10 nM) is “induces apoptosis”. In series [13], the “effect on PKA-activated PR-B” value was “no effect on PKA-activated PR-B”.

The values above are taken from US10039806B2, “Methods and compositions for treating antiprogestin-resistant cancers” (Fundación Sales, priority 2011, dated 2018).
